# Where “and” joins values, the source holds several entries; their conditions need not be identical. Identical values can stand only once. Entries after “also recorded” stand apart in the source; their conditions may differ.
# Key:
# [1] = Dolutegravir plasma concentration in Balb/C mice after PO, IV and IP administration; format: in vivo, mouse; conditions: 10 mg/kg PO, 4 mg/kg IV, 4 mg/kg IP
# Experimental: Male mice of 6-7 weeks of age were obtained from Charles River and allowed to acclimate for 3-5 days. The mice were weighed and individually identified (tail marked). The mice (n=3) in the oral (PO) group were fasted overnight and orally gavaged with 10 mg/kg of Dolutegravir. The second group of mice (n=3) were intravenously (IV) injected with 4 mg/kg of Dolutegravir. The third group of mice (n=3) were intraperitoneally (IP) injected with 4 mg/kg of Dolutegravir. At 10 min, 0.5 h, 1 h post dosing. ˜120 μl of blood sample was collected from the IV and IP mice by orbital venous sinus bleeding. At 1 h, 2 h, 4 h post dosing, ˜120 μl of blood sample was collected from the PO mice by orbital venous sinus bleeding. […] For analysis, the plasma samples were diluted into the calibration range as needed. […] The calibration curve was extracted in the same way as the unknown samples. The final extracts were analyzed by LC-MS/MS using positive electrospray ionizations under the multiple-reaction-monitoring (MRM) mode for the detection of Dolutegravir. The standard curve fitted by linear regression was used to quantify the analyte in the matrix using Analyst 1.6.2 software (AB Sciex).
# [2] = human, in vivo
# [3] = target: T1, OCT2 over OCT3, MATE1 and MATE2K (Homo sapiens, UniProt O15244); experiment: Inhibition of OCT2-mediated oxaliplatin transport in 100% human serum or HBSS containing 4% BSA (IC50,app); conditions: human, MDCK-II cells transfected with human transporters, selectivity between OCT2 and OCT3, MATE1 and MATE2K, oxaliplatin transport
# T1 sequence (O15244 1-555): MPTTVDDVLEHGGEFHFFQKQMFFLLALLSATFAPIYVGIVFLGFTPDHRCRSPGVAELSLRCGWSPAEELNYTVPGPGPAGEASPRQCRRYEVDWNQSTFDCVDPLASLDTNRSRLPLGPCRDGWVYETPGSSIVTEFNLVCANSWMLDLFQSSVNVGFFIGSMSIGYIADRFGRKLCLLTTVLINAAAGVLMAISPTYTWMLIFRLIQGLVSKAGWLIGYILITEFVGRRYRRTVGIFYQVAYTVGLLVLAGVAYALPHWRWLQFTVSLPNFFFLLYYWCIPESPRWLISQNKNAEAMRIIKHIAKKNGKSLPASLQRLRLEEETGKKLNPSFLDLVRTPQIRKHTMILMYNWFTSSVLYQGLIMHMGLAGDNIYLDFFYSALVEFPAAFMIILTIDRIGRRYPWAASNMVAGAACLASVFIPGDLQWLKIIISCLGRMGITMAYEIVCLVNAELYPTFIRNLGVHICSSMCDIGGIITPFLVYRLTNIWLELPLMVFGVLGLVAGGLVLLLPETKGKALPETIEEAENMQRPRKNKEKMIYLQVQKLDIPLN
# Source text: Fully confluent MDCK cell monolayers were transfected with either cDNA plasmids encoding the human transporter to be tested or a GFP control. […] The cells were then washed with ice-cold PBS and lysed with 50:50 acetonitrile:H2O. Intracellular content of the substrate was quantified by LC/MS/MS or a MicroBeta radiometric plate reader.
# OCT2 and MATE1 = experiment: Buflomedil inhibition of OCT2 and MATE1 with metformin as substrate (FIG. 15A); format: cell-based, human
# [4] = Buflomedil plasma concentration in Balb/C mice after IV and IP administration; format: in vivo; conditions: male, mouse
# Experimental: Male mice of 7-8 weeks of age were allowed to acclimate for 6 days. […] Blood was collected at 0.083, 0.5, and 1 hour into Heparin tubes. The plasma was obtained through centrifugation of the blood at 4000 rpm at 4° C.
# For plasma sample analysis, the samples were thawed and mixed well before 20 µL aliquots were processed using protein precipitation by internal standard (Verapamil) containing organic solution, methanol: acetonitrile 5:95 (v/v). After vigorous vortexing and refrigerated centrifugation at 4000 rpm, 50 μL of the extract from each sample was reconstituted with 70 μL of 0.1% formic acid in water. […] The calibration curve was extracted in the same way as the plasma samples. The final extracts were analyzed by LC-MS/MS using positive electrospray ionizations under the multiple-reaction-monitoring (MRM) mode for the detection of buflomedil. The standard curve fitted by linear regression was used to quantify the analyte in the matrix using Analyst 1.5.2 software (AB Sciex) Results
# [5] = tested on: Balb/c mice exposed to chronic treatment with Oxaliplatin; experiment: Morphometry and histopathology of DRG neurons in chronic oxaliplatin neuropathy model; format: in vivo, mouse; conditions: for area of DRG neuron cell bodies and nucleoli (morphometry): OXA 3.5 mg/kg iv twice a week for 4 weeks (8 cycles) ± BFMD 30 mg/kg ip + 15 mg/kg iv
# Source text: The investigator was blind to the nerve and DRG conditions for these analyses. Three animals from each group were sacrificed four days after the last oxaliplatin dose. The left sciatic nerves and the L4-L5 DRGs were harvested and processed following previously reported protocols, resin embedded and sectioned for light and electron microscope analysis. For the light microscopy analysis, 1 μm semithin sections were stained with toluidine blue and examined using a Nikon Eclipse E200 light microscope (Nikon, Firenze, Italy). For the electron microscopy analysis, ultrathin sections (80 nm) counterstained with uranyl acetate and lead citrate, were examined with a Philips CM 10 transmission electron microscope (Philips, Eindhoven, Netherlands).
# The investigator was blind to the experimental conditions of the tissue for these experiments. One micron thick semithin sections stained with toluidine blue were used for morphometric examination of the DRGs from control (n=3) and oxaliplatin-treated mice (n=3). (Renn et al. Molecular Pain 2011, 7:29). Only the cells where the nucleolus was included in the section plane of 50 μm-spaced out sections were considered to avoid the overlapping of the same cell bodies and they were analyzed with computer-assisted image analysis (ImageJ, NIH) to measure the soma and nucleolus size of at least 300 DRG neurons per mouse.
# [6] = Plasma levels of buflomedil and oxaliplatin in the chronic model; format: in vivo, mouse; conditions: 15 minutes after the 8th cycle
# Experimental: At baseline (before drug treatment) and at the end of treatment, caudal nerve conduction study (NCS), behavioral tests (Dynamic and Cold Plate), histopathology study were performed. Serum samples were collected at the end of treatment.
# [7] = Tissue platinum accumulation by atomic absorption after 8 cycles of oxaliplatin; format: in vivo, mouse; conditions: buflomedil 80 mg/kg po; 8 cycles OXA; 24 h after last administration
# Experimental: At the end of 8 cycles of treatment, cold plate test, dynamic test and NCS test were conducted in all mice. Platinum content in DRG, Sciatic nerves and kidney of 3 mice each in the OXA and OXA+BFMD groups, was measured using the method below. The tissue total platinum concentration was determined on frozen sciatic nerve. […] For each tissue, a calibration with control standard tissue was generated. All frozen test samples and standards were treated for a digestion process with a specific HNO3: HCl solution (1:3). The samples obtained after digestion were analyzed by “Atomic Absorption” (Analyst 600 Perkin Elmer, Monza, Italy), and platinum tissue concentration was calculated accordingly.
# [8] = cited from earlier work
smiles,measurement,setting,value
C[C@@H]1CCO[C@H]2Cn3cc(C(=O)NCc4ccc(F)cc4F)c(=O)c(O)c3C(=O)N12 [Dolutegravir],effect of route of administration on plasma exposure,[1],route of administration significantly affected dolutegravir plasma exposure
Clc1ccc(COC(Cn2ccnc2)c2ccc(Cl)cc2Cl)c(Cl)c1 (stereo not shown) [Miconazole],"Plasma peak unbound concentration Cmax,u",[2],1190 nM
same,selectivity ratio,[3],> 10
"COc1cc(OC)c(C(=O)CCCN2CCCC2)c(OC)c1 [Buflomedil, 4-pyrrolidin-1-yl-1-(2,4,6-trimethoxyphenyl)butan-1-one]","inhibition selectivity between OCT2 and MATE1, metformin as substrate",OCT2 and MATE1,no inhibition selectivity between OCT2 and MATE1
same,concentration at 10 min,"[4]; Balb/C, other: IV/IP (intravenous group and intraperitoneal groups), 10 mg/kg IV, 20 or 40 mg/kg IP, each group",> 2000 ng/mL
same,bioavailability,"[4]; ip, Balb/C mice, read-out: estimated bioavailability of IP administration",40 to 60%
same,area of DRG neuron cell bodies and nucleoli (morphometry),[5]; listed as BFMD,nearly completely prevented OXA's induced DRG neuronal injury; also recorded: no difference from the CTRL group
same,area of DRG neuron cell bodies and nucleoli (morphometry),[5]; listed as buflomedil,effective on preventing dorsal root ganglion (DRG) nerve cell injury
same,DRG histopathology (light and electron microscopy),"[5]; OXA 3.5 mg/kg iv, 8 cycles ± BFMD 30 mg/kg ip + 15 mg/kg iv",look clearly similar to the control
same,pharmacokinetic interaction between BFMD and OXA (plasma levels),[6],No pharmacokinetic interaction was observed
same,plasma level at the end of the study,[6]; BFMD 30 mg/kg ip + 15 mg/kg iv,> 1720 ng/mL
same,platinum (oxaliplatin) accumulation in DRG,[7],effective on reducing platinum accumulation in DRG; also recorded: significant decrease in oxaliplatin accumulation in DRG
same,platinum (oxaliplatin) accumulation in kidney,[7],effective on reducing platinum accumulation; also recorded: reduced oxaliplatin accumulation in the kidney
same,platinum (oxaliplatin) accumulation in sciatic nerves,[7],such decrease was not seen in sciatic nerves
same,plasma level associated with serious toxicities,"[8]; European Medicines Agency 2012, Bourguignon 2012",above 10 mg/I and > 32.5 uM
same,MTC (maximum tolerable concentration),[8]; plasma,10 mg/I
